The source of these data is patent US10227342B2 (ARIAD PHARMACEUTICALS, INC., priority 2014, dated 2019).

Assay type in all cases: cell-based
Test [1] concerns the target human EGFR exon 20 insertion ASV (V769_D770insASV) (Homo sapiens (Human), UniProt P00533, INS769ASV). Nature of the test: Ba/F3-EGFR-Exon20-ASV cell anti-proliferative assay (CellTiter 96 MTS, 72 h).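 Further: Ba/F3 cells bearing the EGFR exon 20 ASV insertion, a line able to proliferate without IL-3.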 Conditions: Ba/F3-EGFR-Exon20-ASV cells.
Protocol: (§1) Ba/F3 cells expressing EGFR exon 20 insertions (named Ba/F3-EGFR-Exon20-NPG or Ba/F3-EGFR-Exon20-ASV) can proliferate in the absence of IL-3. The anti-proliferative activity of compounds were determined as follows: BaF3-EGFR-Exon20 cells (NPG or ASV) seeded in 96 well plates (2500 cells/well) were treated with test compound (dissolved in DMSO) at a series of concentrations (4-fold dilution, top concentration: 10,000 nM). The plates were incubated for 72 h in a 37° C. incubator with 5% CO2, and the number of viable cells in each well were measured indirectly by CellTiter 96® Aqueous One Solution Cell Proliferation Assay (Promega) This assay is a colorimetric method for determining the number of viable cells through measurement of their metabolic activity by detection of enzymatic conversion of tetrazolium salts into blue formazan derivatives. Reagent (20 μL) was added into each well, and the plates were returned to the incubator for 2 h. The absorbance in each well was then measured at 490 nm using an Envision plate reader (Perkin Elmer).
Test [2] concerns the target human EGFR E746-A750 deletion and T790M Mutation (DT) (Homo sapiens (Human), UniProt P00533, DEL746-750/T790M). Nature of the test: Ba/F3-EGFR-Del/T790M cell anti-proliferative assay (CellTiter 96 MTS, 72 h). Conditions: Ba/F3-EGFR-Del/T790M cells; read-out: EGFR exon 19 deletion and T790M mutation IC50.
Test [3] concerns the target human EGFR exon 20 insertion NPG (H773_V774insNPG) (Homo sapiens, UniProt P00533, INS773NPG, cells depend on it). Nature of the test: Ba/F3-EGFR-Exon20-NPG cell anti-proliferative assay (CellTiter 96 MTS, 72 h). Conditions: read-out: EGFR exon 20 NPG insertion IC50.
Protocol: as §1
Test [4] has as its target Her2 exon 20 YVMA insertion (A775_G776ins YVMA) (Homo sapiens (Human), UniProt P04626, INS775YVMA). Nature of the test: Ba/F3-Her2 Exon20 YVMA cell anti-proliferative assay (CellTiter 96 MTS, 72 h). Conditions: Ba/F3-Her2 Exon20 YVMA cells. An excerpt: Ba/F3 cells expressing Her2 Exon20 YVMA insertions (named Ba/F3-Her2 Exon20 YVMA) can proliferate in the absence of IL-3.

In general, IC50 refers to the concentration that gives 50% inhibition.

Bounds are passed on as bounds.

human EGFR exon 20 insertion NPG (H773_V774insNPG), sequence (P00533 with tags, fused parts or gaps INS773NPG limits assumed): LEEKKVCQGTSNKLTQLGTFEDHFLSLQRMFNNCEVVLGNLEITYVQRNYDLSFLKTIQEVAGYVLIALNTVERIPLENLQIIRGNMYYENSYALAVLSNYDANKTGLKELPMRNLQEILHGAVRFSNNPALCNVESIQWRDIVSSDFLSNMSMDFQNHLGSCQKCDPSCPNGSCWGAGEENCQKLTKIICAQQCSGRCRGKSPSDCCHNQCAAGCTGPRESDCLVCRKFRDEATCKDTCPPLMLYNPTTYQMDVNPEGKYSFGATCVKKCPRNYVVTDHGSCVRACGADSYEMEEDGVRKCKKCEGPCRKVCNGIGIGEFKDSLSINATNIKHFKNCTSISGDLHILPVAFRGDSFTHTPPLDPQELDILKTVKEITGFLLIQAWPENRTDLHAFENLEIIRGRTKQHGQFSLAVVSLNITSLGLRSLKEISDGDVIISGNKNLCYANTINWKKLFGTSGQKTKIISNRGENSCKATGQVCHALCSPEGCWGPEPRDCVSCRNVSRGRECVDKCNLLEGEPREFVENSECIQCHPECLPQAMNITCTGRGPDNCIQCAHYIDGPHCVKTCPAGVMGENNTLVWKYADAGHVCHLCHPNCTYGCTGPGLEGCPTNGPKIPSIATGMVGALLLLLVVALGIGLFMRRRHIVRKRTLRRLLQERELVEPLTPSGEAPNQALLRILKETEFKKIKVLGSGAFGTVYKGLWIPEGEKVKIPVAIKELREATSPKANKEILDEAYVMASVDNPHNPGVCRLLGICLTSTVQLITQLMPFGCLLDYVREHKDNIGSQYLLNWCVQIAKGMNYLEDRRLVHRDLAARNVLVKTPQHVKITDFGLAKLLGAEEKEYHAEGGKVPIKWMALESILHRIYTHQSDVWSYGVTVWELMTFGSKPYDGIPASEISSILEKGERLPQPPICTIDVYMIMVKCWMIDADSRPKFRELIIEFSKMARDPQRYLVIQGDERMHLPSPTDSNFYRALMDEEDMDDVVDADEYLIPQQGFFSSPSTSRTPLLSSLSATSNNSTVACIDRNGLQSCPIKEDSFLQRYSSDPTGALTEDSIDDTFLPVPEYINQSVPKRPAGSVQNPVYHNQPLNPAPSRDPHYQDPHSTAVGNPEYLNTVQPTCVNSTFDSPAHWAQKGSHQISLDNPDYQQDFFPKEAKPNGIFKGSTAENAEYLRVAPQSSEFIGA
human EGFR exon 20 insertion ASV (V769_D770insASV), sequence (P00533 other isoform, or with tags, fused parts or gaps ins ASV behind 769): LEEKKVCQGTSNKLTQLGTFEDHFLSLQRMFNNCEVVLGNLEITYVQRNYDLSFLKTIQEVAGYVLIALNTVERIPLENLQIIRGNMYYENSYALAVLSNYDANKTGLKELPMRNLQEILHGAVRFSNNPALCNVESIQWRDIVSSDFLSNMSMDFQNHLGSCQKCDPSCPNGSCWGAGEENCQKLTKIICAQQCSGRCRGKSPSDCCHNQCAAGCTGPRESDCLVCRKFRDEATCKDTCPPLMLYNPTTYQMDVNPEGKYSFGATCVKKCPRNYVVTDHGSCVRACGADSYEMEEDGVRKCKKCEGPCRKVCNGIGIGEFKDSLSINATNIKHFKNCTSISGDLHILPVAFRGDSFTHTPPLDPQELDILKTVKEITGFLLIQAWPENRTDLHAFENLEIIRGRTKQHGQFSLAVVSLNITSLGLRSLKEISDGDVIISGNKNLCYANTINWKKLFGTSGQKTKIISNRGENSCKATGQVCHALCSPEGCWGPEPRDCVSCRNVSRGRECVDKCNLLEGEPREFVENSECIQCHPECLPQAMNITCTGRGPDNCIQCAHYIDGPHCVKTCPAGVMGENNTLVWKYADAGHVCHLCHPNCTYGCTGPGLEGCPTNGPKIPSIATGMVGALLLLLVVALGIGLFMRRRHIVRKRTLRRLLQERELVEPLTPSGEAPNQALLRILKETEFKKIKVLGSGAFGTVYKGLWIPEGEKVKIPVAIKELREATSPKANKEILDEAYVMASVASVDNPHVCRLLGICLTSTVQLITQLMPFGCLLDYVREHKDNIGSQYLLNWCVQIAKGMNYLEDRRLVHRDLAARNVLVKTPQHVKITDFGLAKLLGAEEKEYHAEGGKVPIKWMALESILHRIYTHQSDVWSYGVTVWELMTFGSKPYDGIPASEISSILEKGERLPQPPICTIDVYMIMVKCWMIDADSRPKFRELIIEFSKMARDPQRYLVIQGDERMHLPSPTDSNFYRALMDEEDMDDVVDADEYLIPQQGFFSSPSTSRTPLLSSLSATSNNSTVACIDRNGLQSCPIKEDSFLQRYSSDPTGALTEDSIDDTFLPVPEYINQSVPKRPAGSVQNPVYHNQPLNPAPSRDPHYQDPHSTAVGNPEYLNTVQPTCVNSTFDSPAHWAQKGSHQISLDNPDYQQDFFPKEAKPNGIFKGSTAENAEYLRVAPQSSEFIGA
Her2 exon 20 YVMA insertion (A775_G776ins YVMA), sequence (P04626 other isoform, or with tags, fused parts or gaps ins YVMA behind 775): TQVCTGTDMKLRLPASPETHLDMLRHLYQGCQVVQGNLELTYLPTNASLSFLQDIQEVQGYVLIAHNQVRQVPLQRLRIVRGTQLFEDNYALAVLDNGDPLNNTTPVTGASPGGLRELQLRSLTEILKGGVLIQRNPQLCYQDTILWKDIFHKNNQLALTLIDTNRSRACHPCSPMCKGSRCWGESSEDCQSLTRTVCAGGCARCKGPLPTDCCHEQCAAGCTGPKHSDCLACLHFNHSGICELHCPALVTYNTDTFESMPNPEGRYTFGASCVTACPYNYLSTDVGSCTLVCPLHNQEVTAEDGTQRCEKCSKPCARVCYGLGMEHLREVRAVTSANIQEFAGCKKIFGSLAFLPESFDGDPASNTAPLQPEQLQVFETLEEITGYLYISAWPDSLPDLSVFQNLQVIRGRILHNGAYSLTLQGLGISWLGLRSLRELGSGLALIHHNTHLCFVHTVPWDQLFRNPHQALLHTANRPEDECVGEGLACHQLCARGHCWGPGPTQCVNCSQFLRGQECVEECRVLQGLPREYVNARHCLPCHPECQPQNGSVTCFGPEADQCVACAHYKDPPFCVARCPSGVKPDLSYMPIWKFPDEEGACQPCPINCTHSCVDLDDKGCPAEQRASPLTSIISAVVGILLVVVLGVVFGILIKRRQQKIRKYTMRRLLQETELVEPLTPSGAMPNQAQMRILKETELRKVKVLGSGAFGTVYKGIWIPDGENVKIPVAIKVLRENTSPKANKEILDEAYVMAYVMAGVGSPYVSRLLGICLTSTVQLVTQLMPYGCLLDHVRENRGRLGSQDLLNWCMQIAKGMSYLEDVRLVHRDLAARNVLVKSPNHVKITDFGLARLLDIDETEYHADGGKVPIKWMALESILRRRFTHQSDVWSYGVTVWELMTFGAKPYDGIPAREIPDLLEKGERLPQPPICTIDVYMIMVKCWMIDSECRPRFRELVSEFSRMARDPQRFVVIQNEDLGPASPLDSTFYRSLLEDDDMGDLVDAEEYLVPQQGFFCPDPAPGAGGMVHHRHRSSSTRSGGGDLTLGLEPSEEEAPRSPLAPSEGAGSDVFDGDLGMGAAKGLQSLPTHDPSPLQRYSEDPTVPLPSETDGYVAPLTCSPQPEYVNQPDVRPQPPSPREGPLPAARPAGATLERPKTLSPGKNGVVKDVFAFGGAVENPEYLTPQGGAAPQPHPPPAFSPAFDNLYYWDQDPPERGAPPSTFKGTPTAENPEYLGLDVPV
human EGFR E746-A750 deletion and T790M Mutation (DT), sequence (P00533 other isoform, or with tags, fused parts or gaps T790M/del E746-A750): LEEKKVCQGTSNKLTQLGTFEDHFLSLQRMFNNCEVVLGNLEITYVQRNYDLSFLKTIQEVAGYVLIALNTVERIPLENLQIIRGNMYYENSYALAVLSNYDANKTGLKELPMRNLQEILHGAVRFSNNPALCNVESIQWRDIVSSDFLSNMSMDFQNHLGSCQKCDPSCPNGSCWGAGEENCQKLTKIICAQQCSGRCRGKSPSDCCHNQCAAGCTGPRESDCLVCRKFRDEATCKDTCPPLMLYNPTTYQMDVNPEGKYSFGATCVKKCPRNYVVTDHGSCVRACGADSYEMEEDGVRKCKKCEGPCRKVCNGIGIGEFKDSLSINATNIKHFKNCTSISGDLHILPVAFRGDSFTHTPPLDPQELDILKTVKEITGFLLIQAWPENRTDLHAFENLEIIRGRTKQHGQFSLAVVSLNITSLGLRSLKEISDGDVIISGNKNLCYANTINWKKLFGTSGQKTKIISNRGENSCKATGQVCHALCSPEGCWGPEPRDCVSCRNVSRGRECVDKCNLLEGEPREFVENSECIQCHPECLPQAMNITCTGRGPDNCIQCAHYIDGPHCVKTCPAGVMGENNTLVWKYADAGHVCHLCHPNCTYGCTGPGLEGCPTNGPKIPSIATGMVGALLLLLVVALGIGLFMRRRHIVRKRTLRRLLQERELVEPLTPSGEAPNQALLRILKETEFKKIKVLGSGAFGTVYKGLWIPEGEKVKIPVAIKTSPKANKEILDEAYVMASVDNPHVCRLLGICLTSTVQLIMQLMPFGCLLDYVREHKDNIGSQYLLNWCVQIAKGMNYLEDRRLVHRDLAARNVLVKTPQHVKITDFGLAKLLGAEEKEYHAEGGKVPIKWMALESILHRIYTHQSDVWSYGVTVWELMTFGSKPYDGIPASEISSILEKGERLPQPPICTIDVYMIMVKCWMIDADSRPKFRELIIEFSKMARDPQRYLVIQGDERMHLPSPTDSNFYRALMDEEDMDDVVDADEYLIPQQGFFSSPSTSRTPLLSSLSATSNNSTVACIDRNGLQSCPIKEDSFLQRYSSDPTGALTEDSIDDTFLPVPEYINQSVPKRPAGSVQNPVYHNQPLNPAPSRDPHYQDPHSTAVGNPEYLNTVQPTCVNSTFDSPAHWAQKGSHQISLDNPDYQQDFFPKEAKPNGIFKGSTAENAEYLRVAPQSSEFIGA

As to `C=CC(=O)Nc1cc(Nc2nccc(-c3cn(C)c4cc(C(=O)OC)ccc34)n2)c(OC)cc1N(C)CCN(C)C` [Example 82, methyl 3-(2-((5-acrylamido-4-((2-(dimethylamino)ethyl)(methyl)amino)-2-methoxyphenyl)amino)pyrimidin-4-yl)-1-methyl-1H-indole-6-carboxylate], the IC50 in test [1] was 100 to 500 nM; in test [2], under 100 nM; in test [3], under 100 nM; in test [4] it was 100 to 500 nM.
As for `C=CC(=O)Nc1cc(Nc2ncc(C(=O)O[C@@H]3CCOC3)c(-c3cn(C)c4ccccc34)n2)c(OC)cc1N(C)CCN(C)C` [Example 37, (R)-tetrahydrofuran-3-yl 2-((5-acrylamido-4-((2-(dimethylamino)ethyl)-(methyl)amino)-2-methoxyphenyl)amino)-4-(1-methyl-1H-indol-3-yl)pyrimidine-5-carboxylate], the IC50 in test [1] was under 100 nM; in test [2] it was under 100 nM; in test [3], under 100 nM; in test [4] it was 100 to 500 nM.
For the compound `C=CC(=O)Nc1cc(Nc2ncc(C(=O)OC(C)C)c(-n3ccc4ccccc43)n2)c(OC)cc1N(C)CCN(C)C` [Example 15, isopropyl 2-((5-acrylamido-4-((2-(dimethylamino)ethyl)(methyl)amino)-2-methoxyphenyl)amino)-4-(1H-indol-1-yl)pyrimidine-5-carboxylate], the IC50 in test [1], in test [2], in test [3] and in test [4] was under 100 nM each time.
Regarding `C=CC(=O)Nc1cc(Nc2ncc(C(=O)OC(C)C)c(-c3cnn4ccccc34)n2)c(OC)cc1N(C)CCN(C)C` [Example 32, isopropyl 2-((5-acrylamido-4-((2-(dimethylamino)ethyl)(methyl)amino)-2-methoxyphenyl)amino)-4-(pyrazolo[1,5-a]pyridin-3-yl)pyrimidine-5-carboxylate], the IC50 in test [1], in test [2], in test [3] and in test [4] was under 100 nM each time.
As for `C=CC(=O)Nc1cc(Nc2ncc(NC(=O)C(C)(C)C)c(-c3cn(C)c4ccccc34)n2)c(OC)cc1OC` [Example 42, N-(2,4-dimethoxy-5-((4-(1-methyl-1H-indol-3-yl)-5-pivalamidopyrimidin-2-yl)amino)phenyl)acrylamide], the IC50 in test [1], in test [2], in test [3] and in test [4] was over 1000 nM in each case.
Consider `C=CC(=O)Nc1cc(Nc2ncc(C(=O)OCC)c(-c3cn(C)c4ccccc34)n2)c(OC)cc1N(C)C[C@H]1CCCN1C` [Example 65, ethyl (R)-2-((5-acrylamido-2-methoxy-4-(methyl((1-methylpyrrolidin-2-yl)methyl)amino)phenyl)amino)-4-(1-methyl-1H-indol-3-yl)pyrimidine-5-carboxylate], for which the IC50 in test [1], in test [2], in test [3] and in test [4] was under 100 nM throughout.
Turning to `C=CC(=O)Nc1cc(Nc2ncc(C(=O)OC(C)C)c(-c3cn(C(C)=O)c4ccccc34)n2)c(OC)cc1N(C)CCN(C)C` [Example 78, isopropyl 4-(1-acetyl-1H-indol-3-yl)-2-((5-acrylamido-4-((2-(dimethylamino)ethyl)(methyl)amino)-2-methoxyphenyl)amino)pyrimidine-5-carboxylate], the concentration for half-maximal inhibition (IC50) in test [1], in test [2], in test [3] and in test [4] was under 100 nM throughout.
Consider `C=CC(=O)Nc1cc(Nc2ncc(C(=O)OC(C)C)c(-n3cc(C)c4ccccc43)n2)c(OC)cc1N(C)CCN(C)C` [Example 97, isopropyl 2-((5-acrylamido-4-((2-(dimethylamino)ethyl)(methyl)amino)-2-methoxyphenyl)amino)-4-(3-methyl-1H-indol-1-yl)pyrimidine-5-carboxylate], for which the IC50 was 100 to 500 nM in test [1], under 100 nM in test [2], under 100 nM in test [3] and 100 to 500 nM in test [4].
In the case of `C=CC(=O)Nc1cc(Nc2ncc(C(=O)OC)c(-c3cn(C)c4ccccc34)n2)c(OC)cc1N(C)CC1CCCN1C` (stereo not shown) [Example 16, methyl 2-((5-acrylamido-2-methoxy-4-(methyl((1-methylpyrrolidin-2-yl)methyl)amino)phenyl)amino)-4-(1-methyl-1H-indol-3-yl)pyrimidine-5-carboxylate], the IC50 was under 100 nM in test [1], under 100 nM in test [2], under 100 nM in test [3] and 100 to 500 nM in test [4].
On to `C=CC(=O)Nc1cc(Nc2ncc(C(=O)OC(C)C)c(-c3cnc4ccccn34)n2)c(OC)cc1N(C)CCN(C)C` [Example 94, isopropyl 2-((5-acrylamido-4-((2-(dimethylamino)ethyl)(methyl)amino)-2-methoxyphenyl)amino)-4-(imidazo[1,2-a]pyridin-3-yl)pyrimidine-5-carboxylate], for which the IC50 in test [1], in test [2], in test [3] and in test [4] was under 100 nM in each case.
On to `C=CC(=O)Nc1cc(Nc2ncc(NC(=O)CC)c(-c3nn(C)c4ccccc34)n2)c(OC)cc1N(C)CCN(C)C` [Example 60, N-(2-((2-(dimethylamino)ethyl)(methyl)amino)-4-methoxy-5-((4-(1-methyl-1H-indazol-3-yl)-5-propionamidopyrimidin-2-yl)amino)phenyl)acrylamide], for which the IC50 in test [1] was under 100 nM; in test [2], under 100 nM; in test [3], under 100 nM; in test [4] it was over 1000 nM.
Consider `C=CC(=O)Nc1cc(Nc2ncc(C(=O)OCC(C)C)c(-c3cn(C)c4ccccc34)n2)c(OC)cc1N(C)CCN(C)C` [Example 28, isobutyl 2-((5-acrylamido-4-((2-(dimethylamino)ethyl)(methyl)amino)-2-methoxyphenyl)amino)-4-(1-methyl-1H-indol-3-yl)pyrimidine-5-carboxylate], for which the IC50 was under 100 nM in test [1], under 100 nM in test [2], under 100 nM in test [3] and 100 to 500 nM in test [4].
As to `C=CC(=O)Nc1cc(Nc2ncc(C(=O)OC(C)C)c(-c3coc4ccccc34)n2)c(OC)cc1N(C)C[C@H]1CCCN1C` [Example 62, isopropyl (R)-2-((5-acrylamido-2-methoxy-4-(methyl((1-methylpyrrolidin-2-yl)methyl)amino)phenyl)amino)-4-(benzofuran-3-yl)pyrimidine-5-carboxylate], the IC50 was under 100 nM in test [1], under 100 nM in test [2], under 100 nM in test [3] and 100 to 500 nM in test [4].
`C=CC(=O)Nc1cc(Nc2ncc(C(=O)OC3COC3)c(-c3cn(C)c4ccccc34)n2)c(OC)cc1N(C)CCN(C)C` [Example 11, oxetan-3-yl 2-((5-acrylamido-4-((2-(dimethylamino)ethyl)(methyl)amino)-2-methoxyphenyl)amino)-4-(1-methyl-1H-indol-3-yl)pyrimidine-5-carboxylate]: the IC50 in test [1], in test [2], in test [3] and in test [4] was under 100 nM each time.
Regarding `C=CC(=O)Nc1cc(Nc2ncc(C#N)c(-c3nn(C)c4ccccc34)n2)c(OC)cc1N(C)CCN(C)C` [Example 98, N-(5-((5-cyano-4-(1-methyl-1H-indazol-3-yl)pyrimidin-2-yl)amino)-2-((2-(dimethylamino)ethyl)(methyl)amino)-4-methoxyphenyl)acrylamide], the IC50 in test [1], in test [2], in test [3] and in test [4] was under 100 nM throughout.
`C=CC(=O)Nc1cc(Nc2nccc(-c3c(-c4cncc(Cl)c4)n(C)c4ccccc34)n2)c(OC)cc1N(C)CCN(C)C` [Example 6, N-(5-((4-(2-(5-chloropyridin-3-yl)-1-methyl-1H-indol-3-yl)pyrimidin-2-yl)amino)-2-((2-(dimethylamino)ethyl)(methyl)amino)-4-methoxyphenyl)acrylamide]: the IC50 in test [1] is under 100 nM; in test [2], under 100 nM; in test [3], under 100 nM; in test [4], 100 to 500 nM.
With `C=CC(=O)Nc1cc(Nc2ncc(Cl)c(-c3cnn4ccccc34)n2)c(OC)cc1N1CCC(N(C)C)C1` (stereo not shown) [Example 55, N-(5-((5-chloro-4-(pyrazolo[1,5-a]pyridin-3-yl)pyrimidin-2-yl)amino)-2-(3-(dimethylamino)pyrrolidin-1-yl)-4-methoxyphenyl)acrylamide], the IC50 in test [1] was over 1000 nM; in test [2], under 100 nM; in test [3], 100 to 500 nM; in test [4] it was over 1000 nM.
As to `C=CC(=O)Nc1cc(Nc2ncc(C(=O)OC(C)C)c(-c3c[nH]c4ccccc34)n2)c(OC)cc1N(C)C[C@H]1CCCN1C` [Example 64, isopropyl (R)-2-((5-acrylamido-2-methoxy-4-(methyl((1-methylpyrrolidin-2-yl)methyl)amino)phenyl)amino)-4-(1H-indol-3-yl)pyrimidine-5-carboxylate], the IC50 in test [1], in test [2], in test [3] and in test [4] was under 100 nM each time.
Consider `C=CC(=O)Nc1cc(Nc2ncc(C(=O)OC)c(-c3cn(C)c4ccccc34)n2)c(OC)cc1N(C)CCN(C)C` [Example 8, methyl 2-((5-acrylamido-4-((2-(dimethylamino)ethyl)(methyl)amino)-2-methoxyphenyl)amino)-4-(1-methyl-1H-indol-3-yl)pyrimidine-5-carboxylate], for which the IC50 in test [1], in test [2], in test [3] and in test [4] was under 100 nM each time.
